Laboratory results reported in patent publication US20090181110A1, “Compositions from Garcinia as Aromatase Inhibitors for Breast Cancer Chemoprevention and Chemotherapy” (THE OHIO STATE UNIVERSITY RESEARCH FOUNDATION, priority 2007, published 2009).
≈ marks a conversion by molar mass, not a printed value. Where “and” joins values, the source holds several entries; their conditions need not be identical. Identical values can stand only once. Like-named read-outs stand apart in the source and are kept apart here.

How the values were obtained:
quinone reductase = assay: Quinone reductase (QR) induction assay in Hepa 1c1c7 cells; format: cell-based, murine
From the text: Thus compound 21 is a candidate for use as a cancer chemopreventive agent.

[1] = biological target: T1, aromatase (human placental microsomes) (Homo sapiens, UniProt P11511); assay: Noncellular, enzyme-based, microsomal aromatase bioassay; format: biochemical; details: for Noncellular Bioassay PCA 20 μg/mL: percent control activity; for IC50: six concentrations 1-100 μM;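 as to all read-outs here: aromatase activity read as tritiated water release by scintillation counting after 15 min at 37 °C, relative to DMSO vehicle, with boiled microsomes giving background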
T1 construct: Microsomes were obtained from the remaining tissue as described; from tissue; host or cells: human term placenta (microsomal fraction)
T1 sequence (P11511 1-503): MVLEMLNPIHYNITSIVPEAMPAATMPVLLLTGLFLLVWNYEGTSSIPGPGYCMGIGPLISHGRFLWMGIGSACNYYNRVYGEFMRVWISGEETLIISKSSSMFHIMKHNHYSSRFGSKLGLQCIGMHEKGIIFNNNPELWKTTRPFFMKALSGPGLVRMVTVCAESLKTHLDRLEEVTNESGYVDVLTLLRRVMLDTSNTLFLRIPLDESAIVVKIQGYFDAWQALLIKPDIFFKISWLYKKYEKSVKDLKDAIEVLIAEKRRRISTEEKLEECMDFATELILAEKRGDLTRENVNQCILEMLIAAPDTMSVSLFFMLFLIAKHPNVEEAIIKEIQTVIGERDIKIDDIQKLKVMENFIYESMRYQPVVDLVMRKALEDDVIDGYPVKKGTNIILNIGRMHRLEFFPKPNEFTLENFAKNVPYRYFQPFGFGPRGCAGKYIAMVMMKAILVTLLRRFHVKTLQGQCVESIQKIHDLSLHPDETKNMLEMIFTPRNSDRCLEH

[2] = test system: DMBA-induced preneoplastic lesions; details: background statement; cited from earlier work
SK-BR-3 cells = assay: SK-BR-3 cell-based cytotoxicity bioassay (MTT cell viability); design: species or system human; details: 50 μM
[3] = Peroxynitrite scavenging activity, SIN-1-derived ONOO−
Protocol: (§1) ONOO-scavenging activity was measured by monitoring the oxidation of nonfluorescent DHR 123 to highly fluorescent rhodamine 123 using the modified method of Kooy et al. Briefly, DHR 123 (5 mM) in EtOH, purged with nitrogen, was stored at −80° C. as a stock solution. This solution was not exposed to light, prior to the study. The rhodamine buffer (pH 7.4) consisted of 50 mM sodium phosphate dibasic, 50 mM sodium phosphate monobasic, 90 mM sodium chloride, 5 mM potassium chloride, and 100 μM DTPA. The final concentration of DHR 123 was 5 μM. The buffer in this assay was prepared before use and placed on ice. The concentrations of compounds tested were in the range from 0.2 to 100 μM in 10% DMSO. The background and final fluorescent intensities were measured 5 min after treatment with and without the addition of authentic ONOO— in 0.3 N sodium hydroxide (10 μM) or SIN-1 in deionized water (10 μM). DHR 123 was oxidized rapidly by ONOO—, superoxide anion (O2.-), and nitric oxide (NO.). The fluorescence intensity of oxidized DHR 123 was measured with an LS55 luminescence spectrometer (Perkin-Elmer, Boston, Mass.) at the excitation and emission wavelengths of 480 and 530 nm, respectively. […] DL-Penicillamine was used as a positive control.

[4] = Peroxynitrite scavenging activity, authentic ONOO−
Protocol: as §1

[5] = biological target: T2, aromatase in SK-BR-3 cells (Homo sapiens, UniProt P11511); assay: SK-BR-3 cell-based aromatase bioassay
T2 construct: SK-BR-3 hormone-independent human breast cancer cells that overexpress aromatase; endogenous in cells; host or cells: SK-BR-3 human breast cancer cells
T2 sequence (P11511 1-503): T1 sequence (P11511 1-503)

[6] = test system: DMBA-induced preneoplastic lesions; assay: Mouse mammary organ culture (MMOC) assay; format: cell-based; details: for percent inhibition of DMBA-induced preneoplastic lesions: 10 μg/mL
Protocol: This assay was carried out according to an established protocol disclosed in the art. In brief, 4-week-old BALB/c female mice (Charles River, Wilmington, Mass.) were pretreated for 9 days with 1 μg of estradiol and 1 mg of progesterone. On the 10th day, the mice were sacrificed and the second pair of thoracic mammary glands was dissected on silk and transferred to 60 mm culture dishes containing 5 mL of Waymouth's 752/1 MB medium supplemented with streptomycin, penicillin, and L-glutamine. The glands were incubated for 10 days (37° C., 95% O2 and 5% CO2) in the presence of growth-promoting hormones (5 μg of insulin, 5 μg of prolactin, 1 μg of aldosterone, and 1 μg of hydrocortisone per milliliter of medium). Glands were exposed to 2 μg/mL 7,12-dimethylbenz[a]anthracene (DMBA) between 72 and 96 h. After their exposure, glands were rinsed and transferred to new dishes with fresh medium. The fully differentiated glands were then permitted to regress by withdrawing all hormones except insulin for 14 additional days. Test compounds were present in the medium during days 1-10 of culture; mammary glands were scored for the incidence of lesions.

[7] = test system: preneoplastic lesions (aberrant crypt foci); details: recent work, background statement, cited from earlier work

In the case of O=C(/C=C/c1ccc(O)cc1)c1ccc(O)cc1O [isoliquiritigenin, reference compound], the “CD (concentration required to double QR induction activity)” value (shortened to “CD”) (quinone reductase) is reported as 1.1 µg/mL.

In the case of CC(C)=CCc1c(O)c(CC=C(C)C)c2oc3c(O)ccc(O)c3c(=O)c2c1O [Compound 8, gartanin], the “Noncellular Bioassay PCA 20 μg/mL” value [1] is reported as 75.9 PCA.

For COc1c(O)cc2oc3cc(O)c(CC=C(C)C)c(O)c3c(=O)c2c1CC=C(C)C [Compound 10, α-mangostin], the “alveolar duct formation in mouse mammary organ culture model, in words” value [2] is given as “inhibit alveolar duct formation”, the “Cytotoxicity % cell surv.” value (SK-BR-3 cells) is given as 18.4% and the “antioxidant activity, in words (SIN-1-derived ONOO−)” value [3] is given as “potent antioxidant activity”. For the same compound, the “antioxidant activity, in words (authentic ONOO−)” value [4] was “potent antioxidant activity”, the “Cell-based Bioassay PCA 50 μM” value [5] was 59.4 PCA and the “IC50 in dose-response MMOC assay” value [6] was 1.0 µg/mL (≈ 2.44 µM). The “percent inhibition of DMBA-induced preneoplastic lesions” value [6] was 57.1%, the IC50 ([6]; same value in μM, read-out: IC50 in dose-response MMOC assay) was 2.44 µM and the “aromatase inhibiting activity, in words” value [1] was “greatest aromatiase inhibiting activity”. The “Noncellular Bioassay PCA 20 μg/mL” value [1] was 22.2 PCA, the IC50 [1] was 20.7 µM and the “inhibition of preneoplastic lesions in colon carcinogenesis model, in words” value [7] was “suppress the carcinogen-induced formation of aberrant crypt foci”. The “inhibition of preneoplastic lesions in colon carcinogenesis model, in words” value ([7]; listed as crude α-mangostin (10) preparation) was “efficacy in inhibiting preneoplastic lesions”.

For garcinone E [Compound 7], the “Cytotoxicity % cell surv.” value (SK-BR-3 cells) was 52.3%, the “Cell-based Bioassay PCA 50 μM” value [5] was 32.3 PCA and the “aromatase inhibiting activity, in words” value [1] was “greatest aromatiase inhibiting activity”. For the same compound, the “Noncellular Bioassay PCA 20 μg/mL” value [1] was 23.9 PCA and the IC50 [1] was 25.1 µM.

With 8-deoxygartanin [Compound 4] the “Noncellular Bioassay PCA 20 μg/mL” value [1] was 82.6 PCA.

With CC(C)=CCc1c(O)cc2oc3ccc4c(c3c(=O)c2c1O)C(O)C(C(C)(C)O)O4 (stereo not drawn) [Compound 21, 1,2-dihydro-1,8,10-trihydroxy-2-(2-hydroxypropan-2-yl)-9-(3-methylbut-2-enyl)furo[3,2-a]xanthen-11-one] the “CD” value (quinone reductase) was 1.3 µg/mL.

In the case of CC(C)=CCC/C(C)=C/Cc1c(O)cc2oc3c(O)cccc3c(=O)c2c1O [Compound 12, mangostinone], the “Noncellular Bioassay PCA 20 μg/mL” value [1] is reported as 78.8 PCA.

For CC(C)=CCc1c(O)cc2oc3cc(O)c(O)c(CC=C(C)C)c3c(=O)c2c1O [Compound 11, γ-mangostin], the “antioxidant activity, in words (SIN-1-derived ONOO−)” value [3] was “potent antioxidant activity”, the “antioxidant activity, in words (authentic ONOO−)” value [4] was “potent antioxidant activity” and the IC50 [5] was 4.97 ± 1.9 µM. The “Cell-based Bioassay PCA 50 μM” value [5] was −0.5 PCA, the “percent inhibition of DMBA-induced preneoplastic lesions” value [6] was 42.9% and the “aromatase inhibiting activity, in words” value [1] was “greatest aromatiase inhibiting activity”. The “Noncellular Bioassay PCA 20 μg/mL” value [1] was 4.7 PCA and the IC50 [1] was 6.88 µM and 6.9 µM.

In the case of cudraxanthone G [Compound 3], the “Noncellular Bioassay PCA 20 μg/mL” value [1] is reported as 57.8 PCA.

With CC(C)=CCc1c(O)cc2oc3ccc(O)c(CC=C(C)C)c3c(=O)c2c1O [Compound 23, 1,3,7-trihydroxy-2,8-di-(3-methylbut-2-enyl)xanthone] the “CD” value (quinone reductase) was 0.68 µg/mL.

With 1-isomangostin [Compound 9] the “Noncellular Bioassay PCA 20 μg/mL” value [1] was 52.6 PCA.

With N#Cc1ccc(C(c2ccc(C#N)cc2)n2cncn2)cc1 [LET, Letrozole, reference compound] the “Cell-based Bioassay PCA (positive control)” value ([5]; 10 nM letrozole) was 7.4 PCA.

For COc1ccc([C@@H]2COc3c(ccc4c3C=CC(C)(C)O4)C2)c(O)c1 [4′O-methylglabridin], the “aromatase inhibiting activity, in words” value [1] was “show results that are supportive of these compounds having utility as aromatase inhibitors”.

In the case of CC(C)=CCC/C(C)=C/Cc1c(O)cc2oc3c(O)ccc(O)c3c(=O)c2c1O [Compound 13, smeathxanthone A], the “antioxidant activity, in words (SIN-1-derived ONOO−)” value [3] is reported as “potent antioxidant activity”, the “antioxidant activity, in words (authentic ONOO−)” value [4] is reported as “potent antioxidant activity” and the “Noncellular Bioassay PCA 20 μg/mL” value [1] is reported as 80.8 PCA.

With COc1c(O)cc2oc3cc(O)c(CC=C(C)C)c(O)c3c(=O)c2c1CCC(C)(C)O [Compound 6, garcinone D] the “Cytotoxicity % cell surv.” value (SK-BR-3 cells) was 89.4%, the “Cell-based Bioassay PCA 50 μM” value [5] was 50.7 PCA and the “aromatase inhibiting activity, in words” value [1] was “greatest aromatiase inhibiting activity”. The “Noncellular Bioassay PCA 20 μg/mL” value [1] was 10.0 PCA and the IC50 [1] was 5.16 µM and 5.2 µM.

For CC(C)=CCc1cc(/C=C/C(=O)c2ccc3c(c2O)C=CC(C)(C)O3)ccc1O [paratocarpin B], the “aromatase inhibiting activity, in words” value [1] was “show results that are supportive of these compounds having utility as aromatase inhibitors”.

With COc1c(O)cc2oc3cc4c(c(O)c3c(=O)c2c1CC=C(C)C)C=CC(C)(C)O4 [Compound 24, mangostanin] the “CD” value (quinone reductase) was 0.95 µg/mL.

For 8-hydroxycudraxanthone G [Compound 1], the “antioxidant activity, in words (SIN-1-derived ONOO−)” value [3] was “potent antioxidant activity”, the “antioxidant activity, in words (authentic ONOO−)” value [4] was “potent antioxidant activity” and the “Noncellular Bioassay PCA 20 μg/mL” value [1] was 55.1 PCA.

In the case of CC(C)=CCc1c(O)cc2oc3c(CC=C(C)C)c(O)c4c(c3c(=O)c2c1O)C=CC(C)(C)O4 [Compound 14, tovophyllin A], the “Noncellular Bioassay PCA 20 μg/mL” value [1] is reported as 74.7 PCA.

In the case of CC(C)=CCc1c(O)ccc2oc3cc4c(c(O)c3c(=O)c12)CC(C(C)(C)O)O4 (stereo not drawn) [Compound 22, 2,3-dihydro-4,7-dihydroxy-2-(2-hydroxypropan-2-yl)-6-(3-methylbut-2-enyl)furo[3,2-b]xanthen-5-one], the “CD” value (quinone reductase) is reported as 2.2 µg/mL.
